{"source": "patent US4591600A", "about": "“3-hydroxyflavones: their preparation and therapeutic application” (Societe Cortial, S.A., priority 1983, dated 1986)", "key": {"[1]": {"biological_target": "T1, aldose reductase (Bos taurus, UniProt P16116)", "T1 construct": "The enzyme was extracted from beef crystalline lenses; from tissue; host or cells: beef crystalline lenses", "test": "Inhibition of aldose reductase in vitro", "format": "biochemical", "settings": "enzyme from beef crystalline lenses; glyceraldehyde reduction, NADPH spectrophotometry", "procedure": "The enzyme was extracted from beef crystalline lenses by the method described by S. Hayman and J. H. Kinoshita (J. Biol. Chem. 1965, 240, (2), 877). The percentage of inhibition of the capacity of the enzyme to reduce glyceraldehyde to glycerol under the effect of the product to be tested was determined by spectrophotometric determination of the amount of NADPH reacting according to the method described by Hayman and Kinoshita."}, "[2]": {"tested_on": "neuropathy induced by streptozotocin", "test": "Streptozotocin neuropathy in rats (sciatic nerve sorbitol and inositol, glycemia)", "format": "in vivo", "settings": "for inositol level in sciatic nerves / sorbitol level in sciatic nerves: streptozotocin 100 mg/kg i.p.; for inositol level in sciatic nerves: 3rd day, controls 2.174±0.481; for sorbitol level in sciatic nerves: controls 0.819±0.215; for glycemia: streptozotocin, D 3, controls 4.72±0.60", "procedure": "4 batches of 10 rats weighing about 200 g were treated from D--2 to D+3 with a gummy julep of the product to be tested. At D 0 the animals received an i.p. injection of 100 mg/kg of streptozotocin dissolved in a citrate buffer. The glycemia was determined 24 hours and 3 days after injection of the diabetogenic agent. The rats were sacrificed on the 3rd day after streptozotocin injection and the sciatic nerves were removed to determine the sorbitol and inositol levels. Tested under these condition, COR 1988 caused a reduction of the sorbitol level that went from 0.819±0.215 mg/kg in the controls to 0.608±0.049 mg/kg in animals treated with 50 mg/kg and to 0.482±0.091 mg/kg in animals treated with 100 mg/kg. Also the inositol level went from 2.174±0.481 mg/kg in the controls to 1.593±0.109 mg/kg in the animals treated wtih 25 mg/kg, to 1.430+0.104 mg/kg in the animals treated with 50 mg/kg and to 1.402±0.130 mg/kg in animals treated with 100 mg/kg. The sorbitol and inositol levels after treatment were compared with the control levels by the U test of Mann and Whitney (D. Schwartz, Methodes statistique a 1' usage des medecins et biologists [Statistical method for use by physicians and biologistes], Ed. Flammarion, Paris 1963). The results obtained are significant with p<1%. Glycemia of the control animals was 4.72±0.60g/l on D 3. It went to 3.93±0.82 g/l in animals treated with […] of COR 1988 and to 3.61±0.73 g/l in animals treated with 100 mg/kg. The reduction of glycemia are significant."}, "[3]": {"tested_on": "mice", "test": "Toxicity in mice", "procedure": "(§1) The toxicity of the products of this invention was determined in mice."}, "[4]": {"test": "Toxicity in mice", "settings": "mouse, in vivo, ip, 200 mg/kg", "procedure": "as §1"}, "[5]": {"tested_on": "hypercholesterolemic mice", "test": "Hypolipidemic activity in hypercholesterolemic mice", "format": "in vivo", "settings": "400 mg/kg orally, twice at 20 hour intervals", "procedure": "The products, object of this invention, are useful as hypolipidemic agents. Thus, COR 1983 administered twice in a dose of 400 mg/kg orally at 20 hour intervals in hypercholesterolemic mice caused 24% reduction in cholesterolemia."}}, "data": [{"smiles": "CS(=O)(=O)Oc1c(-c2ccc(O)c(O)c2)oc2cc(O)cc(O)c2c1=O", "note": "[COR 1988, 3-methanesulfonyloxy-3',4',5,7-tetrahydroxyflavone]", "values": [{"measurement": "IC50", "setting": "[1]", "value": 0.251, "unit": "µM"}, {"measurement": "inositol level in sciatic nerves", "setting": "[2]; treated with 25 mg/kg", "value": "1.593 ± 0.109", "unit": "mg/kg"}, {"measurement": "sorbitol level in sciatic nerves", "setting": "[2]; treated with 50 mg/kg D-2 to D+3, 3rd day", "value": "0.608 ± 0.049", "unit": "mg/kg"}, {"measurement": "inositol level in sciatic nerves", "setting": "[2]; treated with 50 mg/kg", "value": "1.430 ± 0.104", "unit": "mg/kg"}, {"measurement": "sorbitol level in sciatic nerves", "setting": "[2]; treated with 100 mg/kg D-2 to D+3, 3rd day", "value": "0.482 ± 0.091", "unit": "mg/kg"}, {"measurement": "inositol level in sciatic nerves", "setting": "[2]; treated with 100 mg/kg", "value": "1.402 ± 0.130", "unit": "mg/kg"}, {"measurement": "glycemia", "setting": "[2]; treated with 50 mg/kg", "value": "3.93 ± 0.82", "unit": "g/L"}, {"measurement": "glycemia", "setting": "[2]; treated with 100 mg/kg", "value": "3.61 ± 0.73", "unit": "g/L"}, {"measurement": "mortality", "setting": "[3]; mice, orally, in water with 6% gum, up to a dose of 3 g/kg", "value": "did not cause any mortality"}]}, {"smiles": "CCOc1c(-c2ccc(O)c(O)c2)oc2cc(O)ccc2c1=O", "note": "[COR 1987, 3-Ethoxy-7,3',4'trihydroxyflavone]", "values": [{"measurement": "IC50", "setting": "[1]", "value": 0.501, "unit": "µM"}]}, {"smiles": "O=c1c(OC2CCCCC2)c(-c2ccc(O)c(O)c2)oc2cc(O)cc(O)c12", "note": "[COR 1983, 3-cyclohexyloxy-5,7-3',4'-tetrahydroxyflavone]", "values": [{"measurement": "IC50", "setting": "[1]", "value": 1.58, "unit": "µM"}, {"measurement": "mortality", "setting": "[4]", "value": 10, "unit": "%"}, {"measurement": "mortality", "setting": "[3]; mice, orally, in water with 6% gum, dose of 1 g/kg", "value": "no mortality"}, {"measurement": "mortality", "setting": "[3]; mouse, in vivo", "value": "did not cause any mortality"}, {"measurement": "reduction in cholesterolemia", "setting": "[5]", "value": 24, "unit": "%"}]}, {"smiles": "Cc1ccc(S(=O)(=O)Oc2c(-c3ccc(O)c(O)c3)oc3cc(O)cc(O)c3c2=O)cc1", "note": "[COR 1990, 3-Paratoluenesulfonyloxy-5,7,3',4'-tetrahydroxyflavone]", "values": [{"measurement": "IC50", "setting": "[1]", "value": 3.16, "unit": "µM"}]}]}
